Patent US8652799B2, “Method of detecting bioactive molecules in a fluid sample” (priority 2008, dated 2014)
Like-named read-outs stand apart in the source and are kept apart here.

Assays:
Type in all cases: cell-based
Chlorella vulgaris [1] = assay: Stability of F2 fluorescence of Chlorella vulgaris incubated with additives
Description: F2 fluorescence levels produced by Chlorella vulgaris prepared as described in Example 1 above was measured after incubation with additives tested above, namely cadmium (0.5 ppm), cadmium (1 ppm), copper (0.1 ppm) and copper (0.25 ppm). As may be seen in FIG. 8, F2 fluorescence was stable after up to 120 minutes of incubation for each of these additives.

Chlorella vulgaris [2] = tested on: Chlorella vulgaris
Description: The algae concentration was 5×10^6 cells/mL (100 μL of algae within 2 mL of aqueous solution (i.e. distilled water)) containing the substance to detect at indicated concentrations. For each substances, 5 concentrations in triplicates were tested. The TOXSTAT™ software was used to calculate from inhibition values and standard deviations obtained, the maximum concentration without observable effect and the minimal concentration with observable effects. The threshold was calculated with the following formula: (maximum concentration without observable effect x minimal concentration with observable effects)^1/2 (See Table 2 below). The temperature was controlled by a thermostatic bath.
(§1) The detection threshold was obtained with the geometric mean. It was calculated with the following formula: Detection threshold=(CSEO×CMEO)^1/2 where
(§2) CMEO=minimal concentration resulting in a detectable inhibition of the algae efficacy.
(§3) CSEO and CMEO were estimated by a variance analysis ANNOVA™ followed by a Dunnett multiple comparison by comparing the mean efficacy of each tested concentration with the control mean. Calculations were performed with TOXSTAT™ (Version 3.5).

Chlorella vulgaris [3] = settings: for Inhibition: 0.5 ppm
Description: (§4) A Chlorella vulgaris culture was prepared as described in Example 1 above. As indicated in Example 1, the algae were reactivated before testing under ambient light and at room temperature during 90 minutes.
The formulation was then incubated under ambient light at 35° C. and at neutral pH with cadmium, copper, chromium, zinc, nickel, or lead, at indicated concentrations at incubation times varying between 15 minutes and 120 minutes. (FIGS. 9 to 12). The formulations were tested without additives or with 1 ppm cadmium, 0.1 ppm copper or 0.25 ppm copper as additive. The cellular concentration was 2.5×10^6 cells/mL (50 μL of algae within 2 mL of metal containing aqueous solution (i.e. distilled water)). Testing was performed in triplicates. The fluorescence emitted by each formulation was then measured with Luminotox™, a fluorometer that measures photosynthetic activity.

Chlorella vulgaris [4] = assay: Inhibition of fluorescence emission of Chlorella vulgaris incubated at 35° C.; settings: 15 minutes
Description: The present invention also concerns a method for ammonia nitrogen detection comprising changing algal cell permeability. This compound is detected at 100 ppm at neutral pH but the increment of pH up to 11 decreases the threshold to 1 ppm. Algal permeability can also be modified by increasing the incubation temperature of the assay. For example, fluorescence emission is inhibited in 15 minutes by copper ions, tetracycline and progesterone if Chlorella vulgaris is incubated at 35° C., while at room temperature the detection of these compounds in 15 minutes was possible when these compounds are present at higher concentrations. Chlorella vulgaris is a freshwater alga and is used for freshwater monitoring while Dunaliella tertiolecta is used of for marine water monitoring.

Dunaliella tertiolecta [5] = settings: 15 min. green light exposition at room temperature
Description: as §1, §2, §3
(§5) A Dunaliella tertiolecta culture was prepared as described in Example 2 above. As indicated in Example 2, the algae were reactivated before testing under ambient light and at room temperature during 45 minutes.
The algae formulations were then incubated for 15 minutes with water containing one of the various contaminants listed in Table 2 below at neutral pH under green light and at room temperature. The algae concentration was 350 000 cells/mL (500 μL of algae within 2 mL of aqueous solution (i.e. distilled water) containing substance to detect at indicated concentrations). For each substances, 5 concentrations in triplicates were tested. The TOXSTAT™ software was used to calculate from inhibition values and standard deviations obtained, the maximum concentration without observable effect and the minimal concentration with observable effects (See Table 2 below). The temperature was controlled by a thermostatic bath. Tests were performed in triplicates. The fluorescence emitted by each formulation was then measured with Luminotox™, a fluorometer that measures photosynthetic activity and detection threshold determined as described in the Example above.

Chlorella vulgaris [6] = assay: Detection of lead with Chlorella vulgaris with single additives or additive mixtures
Description: as §4
The formulation was then incubated under ambient light at 35° C. and at neutral pH with lead, at indicated concentrations and at incubation times varying between 15 minutes and 120 minutes (FIGS. 13 to 16). The formulations were tested with or without additives used as single additives (Cd 1 ppm, Cu 0.1 ppm and Cu 0.25 ppm) or mixes of additives (Cu 0.1 ppm+Cd 0.5 ppm; Cu 0.1 ppm+Cd 1 ppm; Cu 0.25 ppm+Cd 1 ppm). The cellular concentration was 2.5×10^6 cells/mL (50 μL of algae within 2 mL of lead containing aqueous solution (i.e. distilled water) with or without additives). Testing was performed in triplicates. The fluorescence emitted by each formulation was then measured with Luminotox™ a fluorometer that measures photosynthetic activity.

Anabaena sp. = assay: Detection of bioactive molecules with Anabaena sp.: inhibition of photosynthetic fluorescence (Luminotox); settings: 1 ppm, neutral pH; for inhibition at 1 ppm: 10 min
Description: The photosynthetic efficiency is determined with the following formula (F2−F1)/F2. Any molecule affecting directly or indirectly the photosystems modify either F1 or F2 which modification necessarily decreases the photosynthetic efficiency. The inhibition curve of a particular molecule is determined by calculating the activity of the photosystems in the absence of the molecule and in the presence of the molecule and comparing both efficiency as follows as described in Conrad 1993:
Without Inhibitor (wi): efficiency(wi)=(F2(wi)−F1(wi)/F2(wi) With Inhibitor: Relative photosynthetic efficiency(sample)=(F2(sample)−F1(sample))/F2(wi) Percentage Efficiency: efficiency (%)=(efficiency(sample)×100)/efficiency(wi) Percentage Inhibition: Inhibition (%)=100−efficiency (%)
An Anabaena sp. culture was prepared as described in Example 3 above. As indicated in Example 3, the cyanobacteria were reactivated before testing under ambient light and at room temperature during 60 minutes.
The culture was then incubated with bioactive molecules listed in Table 1 below at concentrations of 1 ppm (except for atrazine which was used at a concentration of 1 ppb) for 10 minutes under ambient light followed by 10 minutes under green light and neutral pH. The cellular concentration was 1.0×10^7 cells/mL (100 μL of cyanobacteria within 2 mL of bioactive agent containing aqueous solution (i.e. distilled water)). Testing was performed in triplicates. The fluorescence emitted by each formulation was then measured with Luminotox™ a fluorometer that measures photosynthetic activity.

Dunaliella tertiolecta [7] = assay: Progesterone detection with Dunaliella tertiolecta, green light versus white light then green light; settings: 0.25 h, 15 min green light only, 350 000 cells/mL, read-out: Maximum percentage inhibition
Description: as §5
The formulation was then incubated with progesterone at concentrations of 0; 0.05; […] or 1 ppm for 15 minutes under green light only or for 15 minutes under ambient light followed by 5 to 35 minutes under green light. The cellular concentration was 350 000 cells/mL (500 μL of algae within 2 mL of progesterone containing aqueous solution (i.e. distilled water)). Testing was performed in triplicates. The fluorescence emitted by each formulation was then measured with Luminotox™, a fluorometer that measures photosynthetic activity.

Chlorella vulgaris [8] = assay: Effect of pH on detection of ammoniacal nitrogen with Chlorella vulgaris; settings: for Concentration of NH3 at which 20% inhibition was achieved: 10 min green light, room temperature
Description: A Chlorella vulgaris culture was prepared as described in Example 1 above. As indicated above, the algae were reactivated before testing during 90 minutes under ambient light and at room temperature.
The culture was then incubated with ammoniacal nitrogen for 10 minutes under green light and at room temperature. The desired pH was achieved by adding NaOH to a glycine 20 mM buffer. The cellular concentration of the algae was 5×10^6 cells/mL of solution (100 μL algae in 2 mL of ammoniacal nitrogen containing aqueous solution (i.e. distilled water)). Testing was performed in triplicates. The fluorescence emitted by each formulation was then measured with Luminotox™, a fluorometer that measures photosynthetic activity. Although the Luminotox™ was used in Examples presented herein, any fluorometer able to measure […] can be used in accordance with the present invention.

[9] = 10-15 min. exposition to ambiant light at 35° C., neutral pH (pH 7), 5×10^6 cells/mL
[10] = 1 ppm, 60 minutes of incubation, without additive
[11] = neutral pH (pH 7), 350 000 cells/mL
[12] = 10 min ambient light followed by 10 min green light
[13] = 10 min ambient light, 1.0×10^7 cells/mL
[14] = 10 min ambient light followed by 10 min green light, read-out: Inhibition obtained at 1 ppm (followed by 10 min green light)
[15] = 10 min ambient light, 1.0×10^7 cells/mL, read-out: Inhibition obtained at 1 ppm (10 min ambiant light)

## [Cd] [Cd, Cadmium]
Chlorella vulgaris [1]; 0.5 ppm, up to 120 minutes of incubation
  F2 fluorescence over time: stable
Chlorella vulgaris [1]; 1 ppm, after 120 minutes of incubation
  F2 fluorescence over time: decrease of fluorescence
Chlorella vulgaris [2]; [9]
  Detection threshold: 0.3 ppm
Chlorella vulgaris [3]; 1 ppm alone, 15 minutes of incubation
  Detection: not detected
Chlorella vulgaris [3]; [10]
  Detection: detected although weakly

## [Cr] [Cr, Chrome]
Chlorella vulgaris [3]; 0.1 ppm, 60 minutes of incubation, without additive
  Detection: detected although weakly

## [Cu] [Cu, Copper]
Chlorella vulgaris [1]; 0.1 ppm, up to 120 minutes of incubation
  F2 fluorescence over time: stable
Chlorella vulgaris [1]; 0.25 ppm, up to 120 minutes of incubation
  F2 fluorescence over time: stable
Chlorella vulgaris [4]
  Fluorescence emission: inhibited
Chlorella vulgaris [2]; [9]
  Detection threshold: 0.25 ppm
Chlorella vulgaris [3]; 0.25 ppm, 60 minutes of incubation, without additives
  Detection: not detected
Chlorella vulgaris [3]; 15 minutes of incubation, cadmium 1 ppm as additive
  Inhibition: 30%
Chlorella vulgaris [3]; 15 minutes of incubation, without additive, ambient light 35° C.
  Inhibition: 15%

## CN(C)C(=O)Nc1ccc(Cl)c(Cl)c1 [Diuron]
Dunaliella tertiolecta [5]; [11]
  Detection threshold: 0.002 ppm
Chlorella vulgaris [2]; [9]
  Detection threshold: 0.006 ppm
Chlorella vulgaris [2]; 10-15 min. green light exposition at room temperature, neutral pH (pH 7), 5×10^6 cells/mL
  Detection threshold: <0.0005 ppm
Chlorella vulgaris [2]; 10-15 min. green light exposition at room temperature, neutral pH (pH 7), 5×10^6 cells/mL, listed as diuron
  Detection threshold: lower than 0.0005 ppm

## [Pb] [Pb, Lead]
Chlorella vulgaris [2]; [9]
  Detection threshold: <0.5 ppm
Chlorella vulgaris [3]; [10]
  Detection: detected although weakly
Chlorella vulgaris [6]; 15 minutes of incubation, with mixtures of additives
  Concentration of lead detected: 1 ppm
Chlorella vulgaris [6]; 30 minutes of incubation, mixture Cu 0.1 ppm+Cd 1 ppm
  Concentration of lead detected: 0.1 ppm
Chlorella vulgaris [6]; 60 minutes of incubation, all additive mixtures
  Concentration of lead whose detection was increased: ≥ 0.1 ppm
Chlorella vulgaris [6]; 120 minutes of incubation, additive mixtures Cu 0.1 ppm+Cd 0.5 ppm and Cu 0.25 ppm+Cd 1 ppm
  Concentration of lead detected: 0.01 ppm

## CNC(=O)O/N=C/C(C)(C)SC [aldicarbe]
Anabaena sp.; [12]
  Inhibition obtained at 1 ppm (followed by 10 min green light): 30%
Anabaena sp.; [13]
  Inhibition obtained at 1 ppm (10 min ambiant light): 0%

## CC(C)N1C(=O)c2ccccc2NS1(=O)=O [bentazone]
Anabaena sp.; [14]
  inhibition at 1 ppm: 28%
Anabaena sp.; [15]
  inhibition at 1 ppm: 0%

## CCOP(=S)(OCC)Oc1nc(Cl)c(Cl)cc1Cl [chlorpyrifos]
Dunaliella tertiolecta [5]; [11]
  Detection threshold: 1 ppm
Chlorella vulgaris [2]; [9]
  Detection threshold: 1 ppm
Anabaena sp.; [14]
  inhibition at 1 ppm: 10%
Anabaena sp.; [15]
  inhibition at 1 ppm: 0%

## COP(=O)(OC)O/C(C)=C/C(=O)N(C)C [dicrotophos]
Dunaliella tertiolecta [5]; [11]
  Detection threshold: 235 ppm
Anabaena sp.; [14]
  inhibition at 1 ppm: 17%
Anabaena sp.; [15]
  inhibition at 1 ppm: 2%

## O=C(O)CNCP(=O)(O)O [glyphosate]
Dunaliella tertiolecta [5]; [11]
  Detection threshold: 50 ppm
Chlorella vulgaris [2]; [9]
  Detection threshold: 100 ppm
Anabaena sp.; [14]
  inhibition at 1 ppm: 7%
Anabaena sp.; [15]
  inhibition at 1 ppm: 0%

## CCOC(=O)CC(SP(=S)(OC)OC)C(=O)OCC (stereo not shown) [malathion]
Dunaliella tertiolecta [5]; [11]
  Detection threshold: 50 ppm
Anabaena sp.; [14]
  inhibition at 1 ppm: 17%
Anabaena sp.; [15]
  inhibition at 1 ppm: 0%

## CCc1cccc(C)c1N(C(=O)CCl)C(C)COC (stereo not shown) [metolachlor]
Anabaena sp.; [14]
  inhibition at 1 ppm: 22%
Anabaena sp.; [15]
  inhibition at 1 ppm: 0%

## [Ni] [nickel]
Chlorella vulgaris [3]; 1 ppm, 120 minutes of incubation
  Detection: weakly detected

## CC(=O)[C@H]1CC[C@H]2[C@@H]3CCC4=CC(=O)CC[C@]4(C)[C@H]3CC[C@]12C [progesterone]
Chlorella vulgaris [4]
  Fluorescence emission: inhibited
Dunaliella tertiolecta [7]
  inhibition at 1 ppm: 40%

## Ammonia nitrogen
Dunaliella tertiolecta [5]; pH 11
  Detection threshold: 1 ppm at pH 11
Chlorella vulgaris [2]; pH 11, 10-15 min. exposition to ambiant light at 35° C.
  Detection threshold: 1 ppm at pH 11
Chlorella vulgaris [2]; pH 11, 10-15 min. green light exposition at room temperature
  Detection threshold: 1 ppm at pH 11
Chlorella vulgaris [8]; neutral pH
  Concentration at which the compound is detected: 100 ppm
Chlorella vulgaris [8]; pH 7
  Concentration of NH3 at which 20% inhibition was achieved: 100 ppm
Chlorella vulgaris [8]; pH 9
  Concentration of NH3 at which 20% inhibition was achieved: 5 ppm
Chlorella vulgaris [8]; pH 11
  Concentration of NH3 at which 20% inhibition was achieved: lower than 2 ppm
Chlorella vulgaris [8]; pH 12
  Concentration of NH3 at which 20% inhibition was achieved: lower than 2 ppm
Chlorella vulgaris [8]; pH up to 11
  Detection threshold: 1 ppm

## Mercury [Hg]
Chlorella vulgaris [2]; [9]
  Detection threshold: 0.22 ppm

## cyanure
Chlorella vulgaris [2]; [9]
  Detection threshold: 0.16 ppm
Anabaena sp.; [12]
  Inhibition obtained at 1 ppm (followed by 10 min green light): 16%
Anabaena sp.; [13]
  Inhibition obtained at 1 ppm (10 min ambiant light): 0%

## gramicidine
Anabaena sp.; [12]
  Inhibition obtained at 1 ppm (followed by 10 min green light): 15%
Anabaena sp.; [13]
  Inhibition obtained at 1 ppm (10 min ambiant light): 0%
